In US5589335A, “Hybridization promotion reagents” (Amoco Corporation, priority 1994, dated 1996):
Where a name gives a salt, the structure may show the parent alone.

What was measured:
[1] = target: Proteinase K (Parengyodontium album, UniProt P06873); assay: Proteinase K activity (digestion of 14C-labeled BSA); format: biochemical
Experimental: Prior to empirical determination, it could not be predicted whether addition of the GuSCN to TMA.TFA would produce a reagent with the capability of controlling nucleases. The extent of Proteinase K activity in GT^3 was assayed by determining its ability to digest (solubilize) ^14 C-labeled bovine serum albumin (BSA).
These experiments were done twice, and the percentages below are the averages of the two experiments; the numbers in parentheses are the experimental variations.

[2] = target: T1, RNase A (Bos taurus, UniProt P61823); assay: RNase A inhibition (capturable rRNA target complex); format: biochemical; conditions: for % RNase inhibition: 37° C., 15 minutes; for RNase inactivated: RNase 0.125 μg/ml, 15 min
T1 sequence (P61823 27-150): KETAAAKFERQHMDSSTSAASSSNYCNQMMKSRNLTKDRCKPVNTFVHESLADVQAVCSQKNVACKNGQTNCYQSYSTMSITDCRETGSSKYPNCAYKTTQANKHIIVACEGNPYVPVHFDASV
Experimental: Though the ability of a hybridization medium to support protease activity is desirable, an equally (or more) important property is the capability of inhibiting nucleases, especially ribonucleases. […] The experimental protocol was a follows:
1) A target complex was prepared by hybridizing target rRNA (from Salmonella extracts), capture probe (dA-676), and ^32 P-labeled 3'-Riboprobe (as earlier described).
2) The target complex was diluted into each of the above four test reagents.
3) RNase A solutions of various concentrations (0-250 μg/ml in […] phosphate buffer pH7) were prepared. Into tubes of the diluted target complex was added RNase A, to one of the final concentrations noted in Table 3 below. The control comprised only phosphate buffer diluent. The mixtures were incubated at 37° C. for 15 minutes. Proteinase K was added to a final concentration of 1.25 mg/ml to stop the nuclease activity.
4) Tailed probes and hybridized complexes were captured on magnetic beads (as previously described), which were washed and counted. The level of RNase inhibition was calculated as follows. [formula]

[3] = Reagent stability; format: physicochemical
Experimental: TMA.TFA was prepared by combining equimolar amounts of concentrated Trifluoroacetic acid (Sigma Chemical Co. or Pierce Chemical Co.) and TMA.OH (Sigma Chemical Co. or Southwestern Analytical Chemicals, Inc.) and buffering it with 0.1M phosphate, 0.1M borate, 0.05 mM EDTA (phosphoric acid, boric acid, and EDTA (free acid), neutralized with TMA.OH). Buffered TMA.TFA remained at a constant pH for at least 1 year and its refractive index indicated a loss of only 2-3% of the solutes over the same period.
TMA.TCA is ideally prepared by neutralizing highly concentrated TCA (~9.3M, or ~1.5 g/ml) with TMA.OH. […] This is ideally avoided since the efficiency of hybridization falls as the pH becomes less neutral. […] From the mass, volume and concentration of starting materials, and the volume of the final solution, the nominal concentration of the final product was calculated to be about 3M.

Proteinase K, sequence (P06873 106-384): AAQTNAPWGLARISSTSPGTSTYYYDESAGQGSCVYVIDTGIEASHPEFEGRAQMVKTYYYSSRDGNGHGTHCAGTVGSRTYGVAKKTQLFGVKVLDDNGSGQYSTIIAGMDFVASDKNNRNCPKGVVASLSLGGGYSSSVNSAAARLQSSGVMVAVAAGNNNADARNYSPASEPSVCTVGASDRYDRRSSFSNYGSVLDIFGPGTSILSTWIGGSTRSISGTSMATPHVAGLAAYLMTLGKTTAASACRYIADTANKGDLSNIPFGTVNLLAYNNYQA

N=C(N)N [GuSCN, Guanidinium thiocyanate]
% BSA solubilized ([1]; Proteinase K in reagent): 41% (+/-10%)
half-life of Proteinase K activity ([1]; incubation at 37° C. in reagent): less than an hour
% RNase inhibition ([2]; RNase A 0.00 ug/ml): 100%
% RNase inhibition ([2]; RNase A 0.13 ug/ml): 100%
% RNase inhibition ([2]; RNase A 1.25 ug/ml): 100%
% RNase inhibition ([2]; RNase A 4.17 ug/ml): 100%
% RNase inhibition ([2]; RNase A 12.50 ug/ml): 100%

C[N+](C)(C)C [TMA.TFA, Tetramethyammonium:Trifluoroacetate]
RNase A inhibition [2]: relatively ineffective in inactivating RNase
RNase inactivated ([2]; with Proteinase K 2.5 mg/ml): 92%
RNase inactivated ([2]; without the protease): 73%
time at constant pH ([3]; buffered solution): at least 1 year

C[N+](C)(C)C [TMA.TCA, Tetramethyammonium:Trichloroacetate]
Proteinase K activity in reagent [1]: advantageously active
pH stability ([3]; buffered with phosphate (0.1M) and borate (0.1M)): at least one month
